Test results from the NIST ThermoML archive (doi:10.1021/je4005323).
Numbers after ± are expanded uncertainties.

Conditions: Liquid; for speed of sound: Pulse-echo method; for mass density: Vibrating tube method

CCCCC/C=C\C/C=C\CCCCCCCC(=O)OC [methyl (Z,Z)-9,12-octadecadienate]
Conditions	mass density, 343.15 K [kg/m3]	mass density, 353.15 K [kg/m3]	mass density, 363.15 K [kg/m3]	mass density, 373.15 K [kg/m3]	mass density, 383.15 K [kg/m3]	mass density, 393.15 K [kg/m3]	speed of sound, 343.15 K [m/s]	speed of sound, 363.15 K [m/s]	speed of sound, 383.15 K [m/s]	speed of sound, 393.15 K [m/s]
101.3 kPa	–	841.8 ± 0.6	834.7 ± 0.6	826.5 ± 0.6	819.3 ± 0.6	811.9 ± 0.6	–	1180.3 ± 2.7	1118.2 ± 2.6	1088 ± 2.5
10000 kPa	–	849.3 ± 0.6	842.2 ± 0.6	835.3 ± 0.6	828.2 ± 0.6	820.9 ± 0.6	–	1237 ± 2.8	1178.7 ± 2.7	1150.9 ± 2.6
20000 kPa	–	856.2 ± 0.6	849.5 ± 0.6	842.9 ± 0.6	836.2 ± 0.6	829.3 ± 0.6	–	1288.6 ± 2.9	1233.8 ± 2.8	1207.3 ± 2.7
30000 kPa	–	862.8 ± 0.6	856.4 ± 0.6	849.9 ± 0.6	843.5 ± 0.6	837 ± 0.6	–	1336.6 ± 3	1283.1 ± 2.9	1258.5 ± 2.8
40000 kPa	–	868.9 ± 0.7	862.6 ± 0.7	856.4 ± 0.7	850.2 ± 0.7	844.1 ± 0.7	–	1381.1 ± 3.1	1329 ± 3	1304.7 ± 2.9
50000 kPa	–	874.6 ± 0.7	868.4 ± 0.7	862.4 ± 0.7	856.8 ± 0.7	850.5 ± 0.7	–	1422.6 ± 3.1	1372.3 ± 3	1348.4 ± 3
60000 kPa	–	879.9 ± 0.7	873.9 ± 0.7	868.3 ± 0.7	862.7 ± 0.7	856.7 ± 0.7	–	1462.6 ± 3.2	1413.2 ± 3.1	1389.4 ± 3.1
70000 kPa	–	885.2 ± 0.7	879.1 ± 0.7	873.9 ± 0.7	868.2 ± 0.7	862.4 ± 0.8	–	1500.2 ± 3.3	1452.3 ± 3.2	1428.7 ± 3.1
80000 kPa	895.7 ± 0.7	890 ± 0.7	884.1 ± 0.7	879.3 ± 0.8	873.5 ± 0.8	867.9 ± 0.8	1583.9 ± 3.4	1536.1 ± 3.3	1489.5 ± 3.2	1466.7 ± 3.2
90000 kPa	900.3 ± 0.7	894.7 ± 0.8	889 ± 0.8	884.3 ± 0.8	878.7 ± 0.8	873 ± 0.8	1616.7 ± 3.5	1570.2 ± 3.4	1525.2 ± 3.3	1503.1 ± 3.3
100000 kPa	904.7 ± 0.8	899.3 ± 0.8	893.9 ± 0.8	889.1 ± 0.8	883.9 ± 0.8	878.1 ± 0.8	1648.6 ± 5.2	1602.5 ± 5	1558.2 ± 4.9	1537.7 ± 4.8
110000 kPa	–	–	–	–	–	–	1679 ± 5.2	1634 ± 5.1	1590.3 ± 5	1570 ± 4.9
120000 kPa	–	–	–	–	–	–	1708.5 ± 5.3	1663.9 ± 5.2	1621.1 ± 5.1	1600.8 ± 5
130000 kPa	–	–	–	–	–	–	1736.1 ± 5.4	1693 ± 5.3	1650.8 ± 5.2	1630.7 ± 5.1
140000 kPa	–	–	–	–	–	–	1763.4 ± 5.5	1720.3 ± 5.4	1679.1 ± 5.2	1660.1 ± 5.2
150000 kPa	–	–	–	–	–	–	1789.7 ± 5.6	1747.4 ± 5.4	1707.1 ± 5.3	1688 ± 5.3
170000 kPa	–	–	–	–	–	–	1840.9 ± 5.7	1799.1 ± 5.6	1759.8 ± 5.5	1740.7 ± 5.4
190000 kPa	–	–	–	–	–	–	1889.3 ± 5.8	1847.3 ± 5.7	1808.6 ± 5.6	1790 ± 5.6
210000 kPa	–	–	–	–	–	–	1935.4 ± 6	1894.7 ± 5.9	1855.8 ± 5.7	1838.1 ± 5.7
